# Data published in US20050250677A1, “Glycopeptide antibiotic derivatives” (priority 2002, published 2005).
# Like-named read-outs stand apart in the source and are kept apart here.
# What was measured:
# [1] = tested on: HEL cells; conditions: anti-VZV table
# [2] = tested on: HEL cells; conditions: read-out: CC50 (HEL); HEL cells; anti-VZV table
# [3] = tested on: VZV (wild-type strains); assay: Anti-VZV assay (wild-type strains): virus-induced cytopathicity in HEL cell cultures; type: cell-based, varicella-zoster virus; conditions: HEL cell cultures
# [4] = tested on: HIV-2(ROD); assay: Inhibition of HIV-2 (ROD)-induced cytopathicity (giant cell formation) in CEM cells; type: cell-based; conditions: read-out: EC50 HIV-2 (concentration required to inhibit HIV-induced giant cell formation by 50%); HIV-2, CEM cell cultures
# Procedure: (§1) A variety of glycopeptide antibiotic derivatives of vancomycin, eremomycin and teicoplanin including their aglycon derivatives were evaluated for their inhibitory activity against HIV-1 (IIIB) and HIV-2(ROD) in CEM cell cultures.
# [5] = tested on: HIV-1 (IIIB); assay: Inhibition of HIV-1 (IIIB)-induced cytopathicity (giant cell formation) in CEM cells; type: cell-based; conditions: read-out: EC50 HIV-1 (concentration required to inhibit HIV-induced giant cell formation by 50%); HIV-1, CEM cell cultures
# Procedure: as §1
# [6] = VZV strain OKA, read-out: EC50 VZV (OKA)
# [7] = VZV strain YS, read-out: EC50 VZV (YS)
SMILES,MTC (HEL) [1],CC50 [2] [µM],"EC50 [3, 6] [µM]","EC50 [3, 7] [µM]",EC50 [4] [µM],EC50 [5] [µM]
CNC(=O)C1NC(=O)C2NC(=O)C(NC(=O)C3NC(=O)C4NC(=O)C(Cc5ccc(c(Cl)c5)Oc5cc3cc(c5O)Oc3ccc(cc3Cl)C2O)NC(=O)C(N)c2ccc(O)c(c2)Oc2cc(O)cc4c2)c2ccc(O)c(c2)-c2c(O)cc(O)cc21 (centres unmarked) [Compound 120],≧20-200 μM,> 200,9,10,,
CCCCCCCCCCNCc1c(O)cc2c(c1O)-c1cc(ccc1O)C1NC(=O)C3NC(=O)C4NC(=O)C(Cc5ccc(c(Cl)c5)Oc5cc3cc(c5O)Oc3ccc(cc3Cl)C(O)C(NC1=O)C(=O)NC2C(=O)NCCCN(C)C)NC(=O)C(NC(=O)C(N)CCCCN)c1ccc(O)c(c1)Oc1cc(O)cc4c1 (centres unmarked) [Compound 121],≧5-20 μM,40,2.3,3.1,,
CCCCc1ccc(CNC2C(=O)NC3Cc4ccc(c(Cl)c4)Oc4cc5cc(c4O)Oc4ccc(cc4Cl)C(O)C4NC(=O)C(NC(=O)C5NC(=O)C(NC3=O)c3cc(O)cc(c3)Oc3cc2ccc3O)c2ccc(O)c(c2)-c2c(cc(O)c(CN3CCN(Cc5ccc(-c6ccccc6)cc5)CC3)c2O)C(C(=O)N2CCN(Cc3ccc(-c5ccccc5)cc3)CC2)NC4=O)cc1 (centres unmarked) [Compound 123],≧5-200 μM,> 50,2.8,,,
NC1C(=O)NC2Cc3ccc(c(Cl)c3)Oc3cc4cc(c3OCc3ccc(-c5ccccc5)cc3)Oc3ccc(cc3Cl)C(O)C3NC(=O)C(NC(=O)C4NC(=O)C(NC2=O)c2cc(O)cc(c2)Oc2cc1ccc2O)c1ccc(O)c(c1)-c1c(O)cc(O)cc1C(C(=O)O)NC3=O (centres unmarked) [Compound 128],20 µM,48,1.8,0.8,,
CCCCc1ccc(CNCc2c(O)cc3c(c2O)-c2cc(ccc2O)C2NC(=O)C4NC(=O)C5NC(=O)C(Cc6ccc(c(Cl)c6)Oc6cc4cc(c6O)Oc4ccc(cc4Cl)C(O)C(NC2=O)C(=O)NC3C(=O)O)NC(=O)C(N)c2ccc(O)c(c2)Oc2cc(O)cc5c2)cc1 (centres unmarked) [Compound 136],20 to 50 µM,> 50,3.1,4.1,,
CCCCN(CCCC)c1ccc(CNC(=O)C2NC(=O)C3NC(=O)C(NC(=O)C4NC(=O)C5NC(=O)C(Cc6ccc(c(Cl)c6)Oc6cc4cc(c6O)Oc4ccc(cc4Cl)C3O)NC(=O)C(N)c3ccc(O)c(c3)Oc3cc(O)cc5c3)c3ccc(O)c(c3)-c3c(O)cc(O)cc32)cc1 (centres unmarked) [Compound 137],>5 to 20 µM,98,0.22,0.43,,
CNCc1c(O)cc2c(c1O)-c1cc(ccc1O)C1NC(=O)C3NC(=O)C4NC(=O)C(Cc5ccc(c(Cl)c5)Oc5cc3cc(c5O)Oc3ccc(cc3Cl)C(O)C(NC1=O)C(=O)NC2C(=O)O)NC(=O)C(NC(=O)OC(C)(C)C)c1ccc(O)c(c1)Oc1cc(O)cc4c1 (centres unmarked) [Compound 140],≧50-200 μM,> 50,13,,,
CCCCCCCCCC(=O)N1CCN(Cc2c(O)cc3c(c2O)-c2cc(ccc2O)C2NC(=O)C4NC(=O)C5NC(=O)C(Cc6ccc(c(Cl)c6)Oc6cc4cc(c6O)Oc4ccc(cc4Cl)C(O)C(NC2=O)C(=O)NC3C(=O)O)NC(=O)C(N)c2ccc(O)c(c2)Oc2cc(O)cc5c2)CC1 (centres unmarked) [Compound 141],50 µM,> 50,7.1,,,
CCCCc1ccc(CNCC(=O)N2CCN(Cc3c(O)cc4c(c3O)-c3cc(ccc3O)C3NC(=O)C5NC(=O)C6NC(=O)C(Cc7ccc(c(Cl)c7)Oc7cc5cc(c7O)Oc5ccc(cc5Cl)C(O)C(NC3=O)C(=O)NC4C(=O)O)NC(=O)C(N)c3ccc(O)c(c3)Oc3cc(O)cc6c3)CC2)cc1 (centres unmarked) [Compound 142],50 µM,> 50,20,,,
CCCCc1ccc(CNCC(=O)N2CCN(Cc3c(O)cc4c(c3O)-c3cc(ccc3O)C3NC(=O)C5NC(=O)C6NC(=O)C(Cc7ccc(c(Cl)c7)Oc7cc5cc(c7O)Oc5ccc(cc5Cl)C(O)C(NC3=O)C(=O)NC4C(=O)NC)NC(=O)C(N)c3ccc(O)c(c3)Oc3cc(O)cc6c3)CC2)cc1 (centres unmarked) [Compound 143],≧20-50 μM,> 50,2.8,2.6,,
O=C1NC2C(=O)NC3C(=O)NC4C(=O)NC(C(=O)NC(C(=O)O)c5cc(O)cc(O)c5-c5cc4ccc5O)C(O)c4ccc(c(Cl)c4)Oc4cc3cc(c4O)Oc3ccc(cc3Cl)CC1NC(=O)C(NC(=O)C13CC4CC(CC(C4)C1)C3)c1ccc(O)c(c1)Oc1cc(O)cc2c1 (centres unmarked) [Compound 164],,,,,4,10
